From patent publication US20220125746A1, “METHOD OF PREVENTING OR TREATING TREATMENT-INDUCED GASTROINTESTINAL INJURY” (priority 2019, published 2022)
Where a name gives a salt, the structure may show the parent alone.

Columns and labels:
mouse colonic organoids = test: Mouse colonic organoids treated with CPT; assay type: cell-based; conditions: CPT 500 nM 24 h
Method: Fresh mucosal scrapings from 10 cm of jejunum were washed in cold PBS, resuspended in 700 ul of RNA lysis buffer, and homogenized in a Dounce homogenizer. RNA was isolated using the Quick-RNA MiniPrep kit (Zymo Research) according to the manufacturer's instructions. Organoids were freed from Matrigel using Cell Recovery Solution (Corning), as described in, before RNA isolation. Complementary DNA was generated from 2 ug of total RNA from mice or ˜100 ng of total RNA from colonic organoids and was pooled from three mice or three wells of organoid culture per treatment group using SuperScript III reverse transcriptase (Invitrogen) and random primers. Gene expression was normalized to Gapdh. Representative results are shown, and similar results were obtained in at least three independent experiments. Details on mouse and human primers are found in Tables 1 and 2.
Mouse crypt isolation, organoid development, and passage were done as previously described with minor modifications. In brief, the complete culture medium for mouse intestinal organoids was slightly modified as follows: advanced Dulbecco's modified Eagle medium (DMEM)/F12 (12634-010, Invitrogen) was supplemented with 100 units/ml penicillin/0.1 mg/ml streptomycin (Invitrogen), 2 mM GlutaMAX (ThermoFisher), 20% (vol/vol) FBS (S11150, ATLANTA Biologicals), and WRN-conditioned medium (50%, vol/vol). Freshly isolated crypts were cultured with the same medium plus 10 μM Y-27632 (Y0503 Sigma) and 100 μg/ml Primocin (ant-pm-1, InvivoGen). For CPT and PUMAi treatment, intestinal organoids were passaged and re-plated in 25 μL of Matrigel (356231, Corning) in 24-well plates 24 hours before treatment with CPT (0.5 μM, C9911, Sigma-Aldrich) and PUMAi (50 μM) for 24 hours. The CPT-containing medium was replaced with complete medium containing PUMAi (50 μM). Three groups (treatment control, CPT only, and CPT plus PUMAi) were set up. Organoids 100 μm or greater in diameter were enumerated on day 6 after CPT treatment. Similar results were obtained from at least three independent experiments with triplicate wells in each experiment.

[1] = colorectal cancer patients; cited from earlier work
[2] = system: Lewis lung carcinoma (LLC) tumors; test: LLC tumor-bearing mice treated with CPT-11 six times over 2 weeks; assay type: in vivo, mouse; conditions: LLC tumor experiments
Method: For tumor experiments, 4 million LLC cells [American Type Culture Collection (ATCC)] were injected into the flanks of WT and Puma KO mice and allowed to grow for 11 days. Mice were then treated with CPT-11 (200 mg/kg) three times per week for 2 weeks. PUMAi (10 mg/kg) or vehicle control was administered by intraperitoneal injection 2 hours before and 20 hours after each dose of CPT-11. Mice were sacrificed 4 hours after the final CPT-11 treatment.
For tumor experiments, mice were treated with CPT-11 three times per week for two weeks. Mice receiving PUMAi were treated 2 hours before each dose of CPT-11 and 20 hours after. Mice were sacrificed four hours after the final CPT-11 treatment (FIG. 13A). Tumor volumes were measured with calipers and calculated as volume=(length x width2)/2. Mice were 7-9 weeks old, and roughly equal numbers of male and female animals were used. To account for variations in starting body weights, the values in FIGS. 3 and 4 are expressed as a percentage of the respective mouse weights at the time of the first CPT-11 treatment.
(§1) Immediately after sacrifice, about 10-cm portion of the jejunum was removed and carefully rinsed with ice-cold saline. The tissue was opened longitudinally and tacked to a foam board for fixation overnight in 10% formalin. Tissues were then rolled up into “swiss rolls” and embedded in paraffin. For tumor analysis, flank tumors were removed, measured, and cut into pieces for either formalin fixation or flash freezing in a dry ice/ethanol bath. Tissue sections (5 um) were deparaffinized and rehydrated through graded ethanols. Histological analysis was performed by hematoxylin and eosin (H&E) staining.
Average villus height was determined by measuring 40 to 50 villi from different locations of the small intestine, from at least three different animals per group, and reported as means A} SEM. Measurements were made from the top of the crypt to the tip of the villus using 100 Å˜H&E images and SPOT 5.1 Advanced software (Diagnostic Instruments Inc.).
Neutrophil IF. Sections were prepared as described above. […] Sections were then incubated with AlexaFluor-594 goat antirat secondary antibodies (1:200; A11007; Invitrogen) for 1 hour at room temperature and counterstained with VectaShield plus DAPI.

intestinal crypts = test: CPT-11-induced intestinal crypt apoptosis in mice (TUNEL, active caspase-3); conditions: single dose 200 mg/kg, WT mice, TUNEL and active caspase-3
Method: Puma+/+ (WT) and Puma−/− (Puma KO) mice (52) were generated in-house by heterozygote breeding. WT and Puma KO alleles were genotyped from genomic DNA isolated from tail snips, as described (52). p53−/− (p53 KO) mice were purchased from the Jackson Laboratory. […] All strains are in or have been backcrossed with the C57BL/6 background for more than 10 generations (F10). Mice were housed in microisolator cages in a room illuminated from 07:00 to 19:00 hours (12:12-hour light/dark cycle), with access to water and chow ad libitum.
Rehydrated sections were treated with 3% hydrogen peroxide (immunochemistry only), followed by antigen retrieval for 10 min in boiling 0.1 M citrate buffer (pH 6.0) with 1 mM EDTA. Apoptosis was analyzed by TUNEL staining with the ApopTag Peroxidase In Situ Apoptosis Detection kit (Chemicon International) according to the manufacturer's instructions.
Active caspase 3 IHC. Sections were deparaffinized and rehydrated through graded ethanols. Rehydrated sections were then treated with 3% hydrogen peroxide, followed by antigen retrieval for 10 minutes in boiling 0.1 M citrate buffer (pH 6.0) with 1 mM EDTA. Non-specific antibody binding was blocked using 20% goat serum (Invitrogen) at room temperature for 30 minutes.

C57BL/6J mice = test: Survival and GI injury after three daily doses of CPT-11; assay type: in vivo, mouse; conditions: for lethality: three consecutive daily doses, C57BL/6J WT mice
Excerpt: as §1
; CPT-11). […] . […] BH3-only proteins BIM and NOXA were not induced by CPT-11 or affected by Puma KO (FIG. 8F). […] . […] . Histological analysis confirmed lethal GI injury in WT and p53 KO mice on day 5, showing severe loss of crypts and shortening of villi, which was abrogated in Puma KO mice (FIG. 1F).

LGR5+ stem cells = conditions: after six doses of CPT-11
Method: WT and Puma KO mice carrying the Lgr5-EGFP-IRES-creERT2 marking allele were treated with CPT-11 and PUMAi over 2 weeks as in FIGS. 5A-5G and analyzed for intestinal phenotypes. (FIG. 6A) GFP (LGR5) immunofluorescence in intestinal crypts. Arrows indicate LGR5^+ (GFP) crypts. Scale bar, 100 um. (FIG. 6B) Quantitation of intestinal crypts containing at least one GFP^+ (LGR5^+) cell. (FIG. 6C) Top: Olfm4 RNA ISH in intestinal crypts. Scale bar, 50 um. Asterisks indicate Olfm4+ crypt cells. Bottom: Percentage of crypts containing at least one Olfm4+ cell. (FIG. 6D) MMP7 immunofluorescence in intestinal crypts. Scale bar, 100 um. (FIG. 6E) Quantitation of MMP7+ crypt cells at the crypt base (CBC region). (FIG. 6F) Top: GFP (LGR5) and MMP7 immunofluorescence in intestinal crypts. Scale bar, 20 um. Asterisks indicate LGR5^+/MMP7^+ cell pairs. Bottom: Quantitation of LGR5^+/MMP7^+ cell pairs per crypt. In (FIG. 6A), (FIG. 6D), and (FIG. 6F), DAPI was used to stain nuclei. In (FIG. 6B), (FIG. 6C), (FIG. 6E), and (FIG. 6F), values are means+SEM; n=3 mice. *P<0.05, **P<0.01, and ***P<0.001 (one-way ANOVA with Tukey post hoc test).
LGR5 (GFP) IF. Sections were deparaffinized and rehydrated through graded ethanols. Antigen retrieval was performed by boiling for 10 minutes in 0.1 M citrate buffer (pH 6.0) with 1 mM EDTA. Non-specific antibody binding was blocked using 20% goat serum (Invitrogen) at room temperature for 30 min. […] Sections were then washed in PBS and mounted with VectaShield+DAPI (Vector Labs).
MMP7 IF. Sections were prepared as described above. Non-specific antibody binding was blocked using 20% chicken serum (Invitrogen) at room temperature for 30 min. Sections were washed in PBS and incubated overnight at 4 °C in a humidified chamber with 1:100 diluted goat anti-MMP7 (AF2967; R&D Systems). […] Sections were then washed in PBS and mounted with VectaShield+DAPI (Vector Labs) for visualization.
LGR5(GFP)/1VIMP7 IF. Sections were prepared as described above. Non-specific antibody binding was blocked using 20% chicken serum (Invitrogen) at room temperature for 30 min. Sections were then stained for GFP as described above, followed by staining for MMP7 as described.
ISH for Olfm4 was carried out with the RNAscope 2.0 BROWN kit (Advanced Cell Diagnostics) according to the manufacturer's instructions. Briefly, tissue sections were baked for 60 min at 60 ÅåC, then deparaffinized in xylene, and rehydrated through graded ethanols. Sections then underwent three pretreatment steps, probe hybridization, six amplification steps, development, and counterstaining.

[3] = system: colon cancer cell line DLD1; test: PUMA-induced apoptosis inhibition in DLD1
Method: (§2) PUMAi was added to cells at 25 uM at the same time as CPT.
(§3) A minimum of 300 cells per treatment were analyzed in triplicate.

[4] = system: colon cancer cell line HCT-116; test: PUMA-induced apoptosis inhibition in HCT-116
Method: as §2, §3

p53 = target: T1, p53 (Rattus norvegicus, UniProt P10361); conditions: rats, cited from earlier work
T1 construct: host or cells: rat intestine in vivo
T1 sequence (P10361 whole entry): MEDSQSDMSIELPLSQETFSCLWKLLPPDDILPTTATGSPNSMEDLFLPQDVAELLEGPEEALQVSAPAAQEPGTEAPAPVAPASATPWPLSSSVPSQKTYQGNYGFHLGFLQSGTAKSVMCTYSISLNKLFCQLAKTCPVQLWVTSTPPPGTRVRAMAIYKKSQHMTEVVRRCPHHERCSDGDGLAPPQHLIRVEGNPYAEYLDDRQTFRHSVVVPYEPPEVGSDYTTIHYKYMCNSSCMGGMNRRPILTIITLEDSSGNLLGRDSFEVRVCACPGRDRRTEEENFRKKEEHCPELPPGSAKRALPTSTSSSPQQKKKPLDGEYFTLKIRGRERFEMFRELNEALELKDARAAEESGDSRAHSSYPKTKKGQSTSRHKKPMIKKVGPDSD

Compound | Apoptosis inhibition of DLD1 [3] | Apoptosis inhibition of HCT-116 [4] | also measured
CC[C@@]1(O)C(=O)OCc2c1cc1n(c2=O)Cc2cc3ccccc3nc2-1 [CPT, camptothecin, reference compound] | – | – | effect of CPT on mouse colonic organoids (mouse colonic organoids): induced growth suppression and activation of caspase-3
CCc1c2c(nc3ccc(OC(=O)N4CCC(N5CCCCC5)CC4)cc13)-c1cc3c(c(=O)n1C2)COC(=O)[C@]3(O)CC [CPT-11, irinotecan hydrochloride, reference compound] | – | – | patients with severe diarrhea and nausea [1]: more than 50%; % mice compieting treatment ([2]; PUMA KO mice): 100% (6/6); % mice compieting treatment ([2]; WT mice): 73% (8/11); time of peak crypt apoptosis (intestinal crypts): 6 h; lethality (C57BL/6J mice; 180 mg/kg per day): 30%; lethality (C57BL/6J mice; 215 mg/kg per day): 90%; lethality (C57BL/6J mice; 250 mg/kg per day): 100%; survival at the LD90 of CPT-11, without PUMAi (C57BL/6J mice; CPT-11 215 mg/kg per day x3, WT mice): 10%; drop in Olfm4+ crypts (RNA ISH) (LGR5+ stem cells): 93%; reduction of LGR5+ crypt cells and fraction of LGR5+ crypts (LGR5+ stem cells): more than 90%
O=c1[nH]cc(F)c(=O)[nH]1 [Compound 5-FU, 5-fluorouracil] | – | – | patients with chemotherapy induced diarrhea [1]: 50%
Cc1ccc(OCC(=O)N/N=C/c2cccc(O)c2)cc1C [Compound 7a] | 41% | 33% | –
Cc1ccc(OCC(=O)N/N=C/c2cccc(O)c2)cc1 [Compound 7b] | −2% (no inhibition) | 21% | –
COc1cccc(/C=N/NC(=O)COc2cccc(C)c2)c1OC [Compound 7c] | 26% | 21% | –
O=C(CCc1ccccc1)N/N=C/c1cccc(O)c1 [Compound 7d] | 24% | 21% | –
Cc1ccc(OCC(=O)Nc2ccc(N3CCOCC3)cc2)cc1 [Compound 7e] | 30% | 44% | –
Cc1ccc(OCC(=O)Nc2ccc(S(N)(=O)=O)cc2)cc1 [Compound 7f] | −2% (no inhibition) | −8% (no inhibition) | –
N#CCc1ccc(NC(=O)COc2ccc3c(c2)CCC3)cc1 [Compound 7g] | 24% | −17% (no inhibition) | –
COc1cccc(/C=C/NC(=O)CNc2ccc(C)cc2)c1 [Compound 7h] | 30% | 33% | –
Cc1ccc(/C=N/NC(=O)COc2ccc(C)c(C)c2)o1 [Compound 7i] | 26% | 13% | –
CC(C)c1ccc(OCC(=O)N/N=C/c2cccnc2)cc1 [Compound 7j] | 26% | −8% (no inhibition) | –
CCCCc1c(C)nc(N2CCN(CCO)CC2)[nH]c1=O [Compound 20647237] | 21% | – | –
CC(C)CNC(=O)c1ccc2c(c1)nc1n2CCN(C(C)(C)CO)C1 [Compound 20722356] | 36% | – | –
Cc1ccc(OCC(O)CN2CCN(CCO)CC2)cc1C (stereo not drawn) [Compound 21487182] | 61% | 35% | –
COc1ccc(CCNC(=O)COc2ccc(C)cc2)cc1OC [Compound V1] | 41% | 38% | –
CCc1ccc(OCC(=O)NCc2ccc3c(c2)OCO3)cc1 [Compound V2] | 39% | 40% | –
Cc1ccc(C(=O)Cn2c3c(sc2=N)CCCC3)cc1 [pifithrin-α] | – | – | delayed cell death and onset of mucositis (p53; CPT-11): did not affect delayed cell death or the onset of mucositis; CPT-11-induced intestinal apoptosis (p53; within the first several hours): reduced CPT-11-induced intestinal apoptosis
